Reference: US20080311126A1, “Antisense Oligonucleotides Directed to Ribonucleotide Reducatase R2 and Uses Thereof in Combination Therapies for the Treatment of Cancer” (Genesense Technologies, Inc, priority 2004, published 2008)
“Also recorded” adds a separate entry of the source.

Legend:
[1] = system: LS513 multi-drug resistant colon carcinoma cells; experiment: LS513 multi-drug resistant colon carcinoma xenograft in SCID mice; type: in vivo, human
Method: LSS13 multi-drug resistant colon carcinoma cells (1×10^7 cells in 100 μl of PBS) were subcutaneously injected into the right flank of 6-7 weeks old female SCID mice. After the size of tumour reached an approximate volume of […], 8 days post tumour cell injection, SEQ ID NO:1 was administered by bolus infusion into the tail vein every other day at 10 mg/kg. Control animals received saline alone for the same period. Antitumour effect of SEQ ID NO:1 was further compared to that of CPT-11 alone or in combination. CPT-11 was administered i.p. for 5 days at a dose of 20 mg/kg/day. Antitumour activities were estimated by the inhibition of tumour volume, which was measured with caliper. Each point represents mean tumour volume calculated from 10 animals per experimental group. Tumour weights were measured after animals were sacrificed at the end of the treatment. These cells are not resistant to CPT-11 which was used as a positive control.

[2] = system: HepG2 hepatocellular carcinoma; experiment: Relative colony forming efficiency (Example 17, Table 13); type: cell-based, human; settings: averages of 2-8 determinations
Summary of the method: (§1)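 Antisense phosphorothioates are tested at 0.2 μM unless stated, transfected with DOTMA/DOPE (2.5 μg) for four hours. Colony counts after methylene blue staining give percent inhibition versus vehicle-lipid controls.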

[3] = system: T24 bladder cell carcinoma; experiment: as above; type: cell-based, human; settings: averages of 2-8 determinations
Summary of the method: as §1

[4] = system: T-47D breast ductal carcinoma; experiment: as above; type: cell-based, human; settings: averages of 2-8 determinations
Summary of the method: as §1

[5] = system: HCT116 colon cell carcinoma; experiment: as above; type: cell-based, human; settings: averages of 2-8 determinations
Summary of the method: as §1

[6] = system: PC-3 prostrate cell adenocarcinoma; experiment: as above; type: cell-based, human; settings: averages of 2-8 determinations
Summary of the method: as §1

[7] = system: MDA PaCa-2 pancreatic cell carcinoma; experiment: as above; type: cell-based, human; settings: MIA PaCa-2 pancreatic cell carcinoma; averages of 2-8 determinations
Summary of the method: as §1

[8] = system: MDA-MB-231 breast cell adenocarcinoma; experiment: as above; type: cell-based, human; settings: averages of 2-8 determinations
Summary of the method: as §1

A549 lung cell carcinoma = experiment: as above; type: cell-based, human; settings: averages of 2-8 determinations
Summary of the method: as §1

Human Renal Carcinoma = experiment: Tumour growth assay, human renal carcinoma in mice; type: in vivo
Hela S3 cells = experiment: Relative colony forming efficiency, lipofectin +/- oligonucleotide 4 hours; type: cell-based, human; settings: Hela S3 cervix carcinoma cells; averages of 2-8 determinations
Summary of the method: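 HeLa S3 cells were exposed to phosphorothioate antisense oligonucleotide (0.2 μM unless stated) with lipofectin for 4 h, then grown 7–10 days in 10% FBS medium. Methylene blue-stained colonies were counted and expressed as percent survival relative to lipofectin-only controls.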

[9] = system: PC-3 human prostatic cancer cells; experiment: PC-3 prostatic tumour xenograft in SCID mice; type: in vivo; settings: FIG. 14A; SEQ ID NO:1 10 mg/kg 18 times; mitoxantrone 2 mg/kg once
Method: In both experiments, PC-3 human prostatic cancer cells (1×10^7 cells in 100 μl of PBS) were subcutaneously injected into the right flank of 6-7 weeks old male SCID mice. After the size of tumour reached an approximate volume of 50 mm^3, 14 days post tumour cell injection, SEQ ID NO:1 was administered by bolus infusion into the tail vein every other day at 10 mg/kg 18 times (FIG. 14A) or 17 times (FIG. 14B), respectively. Control animals received saline alone for the same period. Antitumour effect of SEQ ID NO:1 was further compared to that of mitoxantrone (Novantrone®) alone or in combination. Mitoxantrone was administered intravenously once at the beginning of the treatments at a dose of 2 mg/kg (FIG. 14A) or once a week for four weeks at a reduced dose of 0.8 mg/kg (FIG. 14B). All treatments were stopped at day 50 (FIG. 14A) or 48 (FIG. 14B), respectively. A day after the last treatment, tumours were excised from the animals and their weights were measured.

Sequence: GGCTAAATCGCTCCACCAAG (chemistry not given here) [SEQ ID NO: 1, antisense oligonucleotide that hybridizes to the coding region of human ribonucleotide reductase R2 mRNA]
- Tumour weight as % of saline control ([1]; LS513 (colon) multi-drug resistant (CPT-11 sensitive), SCID): 49%
- antitumour effect (tumour volume, tumour weight) ([1]; SEQ ID NO:1 10 mg/kg every other day, CPT-11 20 mg/kg/day i.p. 5 days): significant delay of tumour growth; also recorded: as effective as CPT-11
- Reduced relative colony forming efficiency, HepG2 (% inhibition of colony forming ability) [2]: 75.89%
- Reduced relative colony forming efficiency, T24 (% inhibition of colony forming ability) [3]: 76.79%
- Reduced relative colony forming efficiency, T-47D (% inhibition of colony forming ability) [4]: 66.12%
- Reduced relative colony forming efficiency, HCT116 (% inhibition of colony forming ability) [5]: 70.46%
- Reduced relative colony forming efficiency, PC-3 (% inhibition of colony forming ability) [6]: 83.23%
- Reduced relative colony forming efficiency, MIA PaCa-2 (% inhibition of colony forming ability) [7]: 75.62%
- Reduced relative colony forming efficiency, MDA-MB-231 (% inhibition of colony forming ability) [8]: 90.21%
- Reduced relative colony forming efficiency, A549 (% inhibition of colony forming ability) (A549 lung cell carcinoma): 95.14%
- Inhibition of tumour size (Human Renal Carcinoma; Human Renal Carcinoma (first entry)): Approximately 90% inhibition of
- Inhibition of tumour size (Human Renal Carcinoma; Human Renal Carcinoma^2 (second entry)): Approximately 97% inhibition of
- Reduced relative colony forming efficiency, Hela S3 (% inhibition of colony forming ability) (Hela S3 cells): 67.92%
- antitumour effect (tumour weight) [9]: significant delay of tumour growth
